Experimental data published in publication PMC2801607 (Bioorganic & medicinal chemistry letters, 2009).
Read-outs that look alike come from different tables or passages of the source.

Assays:
[1] = biological target: Mycobacterium tuberculosis phosphatase PtpA (Mycobacterium tuberculosis, UniProt P9WIA1); assay: PtpA continuous inhibition assay with pNPP substrate; assay type: biochemical; conditions: PtpA dose-response curve, variable slope (GraphPad Prism)
Mtb PtpB [2] = assay: biochemical; assay type: biochemical, Mycobacterium tuberculosis
Mtb PtpB [3] = biological target: Mtb PtpB (Mycobacterium tuberculosis, UniProt I6WXK4); assay: biochemical; assay type: biochemical
Mtb PtpB (Mycobacterium tuberculosis, UniProt I6WXK4), sequence (I6WXK4 whole entry, looked up): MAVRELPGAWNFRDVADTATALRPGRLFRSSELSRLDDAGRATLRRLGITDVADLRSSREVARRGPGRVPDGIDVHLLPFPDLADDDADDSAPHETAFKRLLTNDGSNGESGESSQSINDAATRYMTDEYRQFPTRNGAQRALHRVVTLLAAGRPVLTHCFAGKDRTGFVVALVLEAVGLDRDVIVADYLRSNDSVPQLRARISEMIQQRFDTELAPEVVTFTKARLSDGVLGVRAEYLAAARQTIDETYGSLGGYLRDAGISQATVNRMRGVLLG

[4] = system: panel of human tyrosine and dual-specificity phosphatases; assay type: biochemical
Tc-Ptp = biological target: T1, Tc-Ptp (Homo sapiens, UniProt P17706); assay: Selectivity panel: Tc-Ptp inhibition; assay type: biochemical
T1 sequence (P17706 1-415): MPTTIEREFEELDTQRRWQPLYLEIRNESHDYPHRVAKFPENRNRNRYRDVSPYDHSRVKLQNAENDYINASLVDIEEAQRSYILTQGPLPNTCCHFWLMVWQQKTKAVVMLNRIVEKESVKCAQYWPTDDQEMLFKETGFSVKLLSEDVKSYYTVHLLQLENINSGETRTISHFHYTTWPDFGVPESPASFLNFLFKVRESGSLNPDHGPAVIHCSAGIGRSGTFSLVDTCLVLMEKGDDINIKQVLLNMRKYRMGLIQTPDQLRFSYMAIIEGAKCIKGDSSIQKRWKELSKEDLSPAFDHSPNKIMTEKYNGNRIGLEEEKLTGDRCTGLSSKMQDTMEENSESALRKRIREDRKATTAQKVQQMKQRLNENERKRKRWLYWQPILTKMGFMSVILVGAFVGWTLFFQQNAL

PTP1B = biological target: T2, PTP1B (Homo sapiens, UniProt P18031); assay: Selectivity panel: PTP1B inhibition; assay type: biochemical
T2 sequence (P18031 1-435): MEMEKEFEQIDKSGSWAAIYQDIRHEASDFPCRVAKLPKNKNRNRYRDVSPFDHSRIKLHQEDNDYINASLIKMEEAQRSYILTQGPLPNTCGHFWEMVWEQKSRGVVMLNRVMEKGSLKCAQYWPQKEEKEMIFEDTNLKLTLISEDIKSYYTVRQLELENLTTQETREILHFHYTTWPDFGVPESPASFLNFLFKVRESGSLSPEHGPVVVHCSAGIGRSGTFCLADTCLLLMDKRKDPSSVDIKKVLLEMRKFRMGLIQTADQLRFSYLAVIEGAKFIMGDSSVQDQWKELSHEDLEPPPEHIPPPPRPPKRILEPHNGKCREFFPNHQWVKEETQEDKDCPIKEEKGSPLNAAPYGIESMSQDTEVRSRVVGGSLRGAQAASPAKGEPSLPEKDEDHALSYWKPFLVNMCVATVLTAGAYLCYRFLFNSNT

CD45 = biological target: T3, CD45 (Homo sapiens, UniProt P08575); assay: Selectivity panel: CD45 inhibition; assay type: biochemical
T3 sequence (P08575 26-1306): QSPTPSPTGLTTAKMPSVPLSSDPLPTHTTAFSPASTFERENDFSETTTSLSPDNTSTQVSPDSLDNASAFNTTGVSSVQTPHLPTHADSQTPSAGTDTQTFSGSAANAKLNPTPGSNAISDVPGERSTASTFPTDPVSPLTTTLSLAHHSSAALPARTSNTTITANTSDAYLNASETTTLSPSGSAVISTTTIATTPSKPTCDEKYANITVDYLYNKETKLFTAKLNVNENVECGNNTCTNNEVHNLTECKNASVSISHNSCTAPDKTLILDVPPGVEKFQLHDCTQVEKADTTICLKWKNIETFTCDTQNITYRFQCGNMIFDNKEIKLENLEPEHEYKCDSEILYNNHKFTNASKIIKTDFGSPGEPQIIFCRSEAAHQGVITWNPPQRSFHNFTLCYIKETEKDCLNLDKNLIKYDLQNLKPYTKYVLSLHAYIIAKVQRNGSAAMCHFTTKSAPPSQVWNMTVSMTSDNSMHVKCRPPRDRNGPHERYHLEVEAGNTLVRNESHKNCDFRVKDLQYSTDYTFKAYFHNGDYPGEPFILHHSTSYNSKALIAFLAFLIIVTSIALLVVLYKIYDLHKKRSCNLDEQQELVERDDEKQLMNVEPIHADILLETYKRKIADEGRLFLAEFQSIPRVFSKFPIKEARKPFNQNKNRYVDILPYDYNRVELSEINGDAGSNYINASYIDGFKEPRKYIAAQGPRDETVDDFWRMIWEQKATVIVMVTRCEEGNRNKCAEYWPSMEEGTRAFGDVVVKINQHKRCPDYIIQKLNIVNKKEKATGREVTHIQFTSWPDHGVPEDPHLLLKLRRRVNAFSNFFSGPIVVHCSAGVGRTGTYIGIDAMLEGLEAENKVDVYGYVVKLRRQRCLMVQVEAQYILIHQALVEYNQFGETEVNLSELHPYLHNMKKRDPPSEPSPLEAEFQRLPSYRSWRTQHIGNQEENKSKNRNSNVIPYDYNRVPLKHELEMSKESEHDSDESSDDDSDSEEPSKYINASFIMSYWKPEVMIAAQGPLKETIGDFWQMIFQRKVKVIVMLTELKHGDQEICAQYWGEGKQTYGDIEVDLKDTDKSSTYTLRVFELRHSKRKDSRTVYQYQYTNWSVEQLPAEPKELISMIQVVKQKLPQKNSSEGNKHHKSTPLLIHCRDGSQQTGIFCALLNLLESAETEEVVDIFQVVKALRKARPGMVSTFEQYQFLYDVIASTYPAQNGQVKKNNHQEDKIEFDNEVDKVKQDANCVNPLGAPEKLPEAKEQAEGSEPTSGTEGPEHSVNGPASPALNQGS

VHR = VHR (Homo sapiens, UniProt P51452); assay: Selectivity panel: VHR inhibition; assay type: biochemical
VHR, sequence (P51452 whole entry): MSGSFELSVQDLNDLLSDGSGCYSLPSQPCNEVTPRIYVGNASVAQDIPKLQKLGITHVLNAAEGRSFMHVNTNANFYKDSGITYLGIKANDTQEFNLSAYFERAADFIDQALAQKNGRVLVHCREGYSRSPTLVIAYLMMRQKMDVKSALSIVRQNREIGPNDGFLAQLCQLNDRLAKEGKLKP

LAR = LAR (Homo sapiens, UniProt P10586); assay: Selectivity panel: LAR inhibition; assay type: biochemical
LAR, sequence (P10586 30-1907): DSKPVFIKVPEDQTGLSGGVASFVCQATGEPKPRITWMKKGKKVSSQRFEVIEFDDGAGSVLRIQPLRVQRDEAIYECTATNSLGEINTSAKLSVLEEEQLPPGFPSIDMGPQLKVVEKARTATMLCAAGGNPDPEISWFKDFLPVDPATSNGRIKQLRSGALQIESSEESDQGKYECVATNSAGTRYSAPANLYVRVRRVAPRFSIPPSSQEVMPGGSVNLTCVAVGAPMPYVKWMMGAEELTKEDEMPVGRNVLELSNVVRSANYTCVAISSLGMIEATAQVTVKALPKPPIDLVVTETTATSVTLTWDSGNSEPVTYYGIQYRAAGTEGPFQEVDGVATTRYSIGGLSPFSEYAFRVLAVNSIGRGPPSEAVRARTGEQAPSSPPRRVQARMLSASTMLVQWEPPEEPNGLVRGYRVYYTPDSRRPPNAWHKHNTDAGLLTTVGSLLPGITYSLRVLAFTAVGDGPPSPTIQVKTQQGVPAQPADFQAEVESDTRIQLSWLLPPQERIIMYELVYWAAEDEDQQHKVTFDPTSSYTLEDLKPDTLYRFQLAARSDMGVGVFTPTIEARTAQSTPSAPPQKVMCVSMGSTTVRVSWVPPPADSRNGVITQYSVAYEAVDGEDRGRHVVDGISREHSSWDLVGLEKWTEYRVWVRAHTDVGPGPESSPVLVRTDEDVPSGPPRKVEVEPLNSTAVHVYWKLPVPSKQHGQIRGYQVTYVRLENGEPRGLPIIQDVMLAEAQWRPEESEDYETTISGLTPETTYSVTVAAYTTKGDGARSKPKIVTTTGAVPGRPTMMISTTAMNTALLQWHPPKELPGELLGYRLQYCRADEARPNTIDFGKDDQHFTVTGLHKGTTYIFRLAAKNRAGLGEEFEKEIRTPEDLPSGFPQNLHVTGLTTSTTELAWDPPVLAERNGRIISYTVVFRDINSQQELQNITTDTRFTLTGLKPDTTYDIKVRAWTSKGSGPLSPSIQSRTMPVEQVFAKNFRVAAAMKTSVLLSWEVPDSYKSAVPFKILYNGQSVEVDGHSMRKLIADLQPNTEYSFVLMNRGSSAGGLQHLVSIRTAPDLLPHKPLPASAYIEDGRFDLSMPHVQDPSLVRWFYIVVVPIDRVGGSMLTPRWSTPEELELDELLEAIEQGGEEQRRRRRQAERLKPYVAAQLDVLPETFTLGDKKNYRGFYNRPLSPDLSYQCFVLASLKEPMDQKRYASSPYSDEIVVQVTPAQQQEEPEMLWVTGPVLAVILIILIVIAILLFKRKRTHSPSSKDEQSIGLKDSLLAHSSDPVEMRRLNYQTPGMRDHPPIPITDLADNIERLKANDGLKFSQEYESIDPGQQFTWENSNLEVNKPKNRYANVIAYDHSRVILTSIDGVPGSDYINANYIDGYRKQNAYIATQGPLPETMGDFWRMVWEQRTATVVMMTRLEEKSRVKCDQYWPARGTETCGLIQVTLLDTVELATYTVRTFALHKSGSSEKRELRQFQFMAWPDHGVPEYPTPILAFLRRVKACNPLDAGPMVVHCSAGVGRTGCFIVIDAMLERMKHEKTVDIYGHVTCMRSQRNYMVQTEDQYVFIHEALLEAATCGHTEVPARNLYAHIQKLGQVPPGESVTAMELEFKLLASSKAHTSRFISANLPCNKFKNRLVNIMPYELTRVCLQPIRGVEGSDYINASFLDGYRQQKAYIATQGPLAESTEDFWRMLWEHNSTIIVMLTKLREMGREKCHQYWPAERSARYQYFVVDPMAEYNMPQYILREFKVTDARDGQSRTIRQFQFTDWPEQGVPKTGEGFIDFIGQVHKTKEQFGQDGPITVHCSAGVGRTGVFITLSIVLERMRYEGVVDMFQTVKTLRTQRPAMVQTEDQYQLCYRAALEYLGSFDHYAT

Mycobacterium tuberculosis phosphatase PtpA, sequence (P9WIA1 whole entry): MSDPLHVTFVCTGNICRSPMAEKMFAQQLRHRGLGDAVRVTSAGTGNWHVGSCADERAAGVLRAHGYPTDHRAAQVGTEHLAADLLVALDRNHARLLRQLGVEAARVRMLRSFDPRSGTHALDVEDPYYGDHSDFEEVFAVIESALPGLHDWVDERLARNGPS

Work on `O=C(Nc1ccc(C(F)(F)P(=O)(O)O)cc1)Nc1cc(C(F)(F)F)cc(C(F)(F)F)c1` [Compound 43] yielded a Hill coefficient h [1] of −1.1 ± 0.2.
`O=C(Nc1cc(C(F)(F)F)c(Br)c(C(F)(F)F)c1)c1ccc(C(F)(F)P(=O)(O)O)cc1` [Compound 38] gave a Hill coefficient h [1] of −1.0 ± 0.1, a Selectivity (Mtb PtpB [2]) greater than 70 and a Ki (Mtb PtpB [3]) greater than 100 µM. For the same compound, the Ki (Mtb PtpB [3]; PtpB) was “did not inhibit”, the “Selectivity for PtpA versus panel of phosphatases” value [4] was greater than 70 fold and the Selectivity (Tc-Ptp) was greater than 70. It also gave a Selectivity (PTP1B) greater than 70, a Selectivity (CD45) greater than 70 and a Selectivity (VHR) greater than 70. It also gave a Selectivity (LAR) greater than 70.
